Measured values: ChEMBL document CHEMBL1129456, “Synthesis and evaluation of two positron-labeled nitric oxide synthase inhibitors, S-[11C]methylisothiourea and S-(2-[18F]fluoroethyl)isothiourea, as potential positron emission tomography tracers” (J Med Chem, 1996)

Assays:
Rattus norvegicus [1] = organism: Rattus norvegicus; experiment: Biodistribution in heart of mature female Dawley rat after 1h, expressed as percent injected dose/g; assay type: ADME, organism-based; conditions: in vivo
Rattus norvegicus [2] = organism: Rattus norvegicus; experiment: Biodistribution in heart of mature female Dawley rat after 3 h, expressed as percent injected dose/g; assay type: ADME, organism-based; conditions: in vivo
Rattus norvegicus [3] = organism: Rattus norvegicus; experiment: Biodistribution in heart of mature female Dawley rat after 30min, expressed as percent injected dose/g; assay type: ADME, organism-based; conditions: in vivo, 0.5 h
Rattus norvegicus [4] = organism: Rattus norvegicus; experiment: Biodistribution in kidney of mature female Dawley rat after 10min, expressed as percent injected dose/g; assay type: ADME, organism-based; conditions: in vivo
Rattus norvegicus [5] = organism: Rattus norvegicus; experiment: Biodistribution in kidney of mature female Dawley rat after 3 h, expressed as percent injected dose/g; assay type: ADME, organism-based; conditions: in vivo
Rattus norvegicus [6] = organism: Rattus norvegicus; experiment: Biodistribution in kidney of mature female Dawley rat after 30min, expressed as percent injected dose/g; assay type: ADME, organism-based; conditions: in vivo, 0.5 h
Rattus norvegicus [7] = organism: Rattus norvegicus; experiment: Biodistribution in liver of mature female Dawley rat after 10min, expressed as percent injected dose/g; assay type: ADME, organism-based; conditions: in vivo
Rattus norvegicus [8] = organism: Rattus norvegicus; experiment: Biodistribution in lung of mature female Dawley rat after 10min, expressed as percent injected dose/g; assay type: ADME, organism-based; conditions: in vivo
Rattus norvegicus [9] = organism: Rattus norvegicus; experiment: Biodistribution in muscle of mature female Dawley rat after 10min, expressed as percent injected dose/g; assay type: ADME, organism-based, Muscle tissue; conditions: in vivo
Rattus norvegicus [10] = organism: Rattus norvegicus; experiment: Biodistribution in muscle of mature female Dawley rat after 1h, expressed as percent injected dose/g; assay type: ADME, organism-based, Muscle tissue; conditions: in vivo
Rattus norvegicus [11] = organism: Rattus norvegicus; experiment: Biodistribution in muscle of mature female Dawley rat after 3 h, expressed as percent injected dose/g; assay type: ADME, organism-based, Muscle tissue; conditions: in vivo
Rattus norvegicus [12] = organism: Rattus norvegicus; experiment: Biodistribution in muscle of mature female Dawley rat after 30min, expressed as percent injected dose/g; assay type: ADME, organism-based, Muscle tissue; conditions: in vivo, 0.5 h
Rattus norvegicus [13] = organism: Rattus norvegicus; experiment: Biodistribution inl ilver of mature female Dawley rat after 30min, expressed as percent injected dose/g; assay type: ADME, organism-based; conditions: in vivo, 0.5 h
Rattus norvegicus [14] = organism: Rattus norvegicus; experiment: Biodistribution inl iver of mature female Dawley rat after 3 h, expressed as percent injected dose/g; assay type: ADME, organism-based, Liver; conditions: in vivo
Rattus norvegicus [15] = organism: Rattus norvegicus; experiment: Biodistribution in abdominal Dawley rat after 30min, expressed as percent injected dose/g; assay type: ADME, organism-based; conditions: in vivo, 0.5 h
Rattus norvegicus [16] = organism: Rattus norvegicus; experiment: Biodistribution in abdominal of mature female Dawley rat after 10min, expressed as percent injected dose/g; assay type: ADME, organism-based, Abdominal cavity; conditions: in vivo
Rattus norvegicus [17] = organism: Rattus norvegicus; experiment: Biodistribution in abdominal of mature female Dawley rat after 1h, expressed as percent injected dose/g; assay type: ADME, organism-based, Abdominal cavity; conditions: in vivo
Rattus norvegicus [18] = organism: Rattus norvegicus; experiment: Biodistribution in abdominal of mature female Dawley rat after 3 h, expressed as percent injected dose/g; assay type: ADME, organism-based, Abdominal cavity; conditions: in vivo
Rattus norvegicus [19] = organism: Rattus norvegicus; experiment: Biodistribution in blood of mature female Dawley rat after 10min, expressed as percent injected dose/g; assay type: ADME, organism-based; conditions: in vivo
Rattus norvegicus [20] = organism: Rattus norvegicus; experiment: Biodistribution in blood of mature female Dawley rat after 1h, expressed as percent injected dose/g; assay type: ADME, organism-based; conditions: in vivo
Rattus norvegicus [21] = organism: Rattus norvegicus; experiment: Biodistribution in blood of mature female Dawley rat after 3 h, expressed as percent injected dose/g; assay type: ADME, organism-based; conditions: in vivo
Rattus norvegicus [22] = organism: Rattus norvegicus; experiment: Biodistribution in blood of mature female Dawley rat after 30min, expressed as percent injected dose/g; assay type: ADME, organism-based; conditions: in vivo, 0.5 h
Rattus norvegicus [23] = organism: Rattus norvegicus; experiment: Biodistribution in bone of mature female Dawley rat after 10min, expressed as percent injected dose/g; assay type: ADME, organism-based, Bone element; conditions: in vivo
Rattus norvegicus [24] = organism: Rattus norvegicus; experiment: Biodistribution in brain of mature female Dawley rat after 30min, expressed as percent injected dose/g; assay type: ADME, organism-based; conditions: in vivo, 0.5 h
Rattus norvegicus [25] = organism: Rattus norvegicus; experiment: Biodistribution in fat of mature female Dawley rat after 10min, expressed as percent injected dose/g; assay type: ADME, organism-based, Adipose tissue; conditions: in vivo
Rattus norvegicus [26] = organism: Rattus norvegicus; experiment: Biodistribution in fat of mature female Dawley rat after 1h, expressed as percent injected dose/g; assay type: ADME, organism-based, Adipose tissue; conditions: in vivo
Rattus norvegicus [27] = organism: Rattus norvegicus; experiment: Biodistribution in fat of mature female Dawley rat after 3 h, expressed as percent injected dose/g; assay type: ADME, organism-based, Adipose tissue; conditions: in vivo
Rattus norvegicus [28] = organism: Rattus norvegicus; experiment: Biodistribution in fat of mature female Dawley rat after 30min, expressed as percent injected dose/g; assay type: ADME, organism-based, Adipose tissue; conditions: in vivo, 0.5 h
Rattus norvegicus [29] = organism: Rattus norvegicus; experiment: Biodistribution in heart of mature female Dawley rat after 10min, expressed as percent injected dose/g; assay type: ADME, organism-based; conditions: in vivo
Rattus norvegicus [30] = organism: Rattus norvegicus; experiment: Biodistribution in bone of mature female Dawley rat after 3 h, expressed as percent injected dose/g; assay type: ADME, organism-based, Bone element; conditions: in vivo
Rattus norvegicus [31] = organism: Rattus norvegicus; experiment: Biodistribution in bone of mature female Dawley rat after 30min, expressed as percent injected dose/g; assay type: ADME, organism-based, Bone element; conditions: in vivo, 0.5 h
Rattus norvegicus [32] = organism: Rattus norvegicus; experiment: Biodistribution in brain of mature female Dawley rat after 10min, expressed as percent injected dose/g; assay type: ADME, organism-based; conditions: in vivo
Rattus norvegicus [33] = organism: Rattus norvegicus; experiment: Biodistribution in brain of mature female Dawley rat after 1h, expressed as percent injected dose/g; assay type: ADME, organism-based; conditions: in vivo
Rattus norvegicus [34] = organism: Rattus norvegicus; experiment: Biodistribution in brain of mature female Dawley rat after 3 h, expressed as percent injected dose/g; assay type: ADME, organism-based; conditions: in vivo
Rattus norvegicus [35] = organism: Rattus norvegicus; experiment: Biodistribution in bone of mature female Dawley rat after 1h, expressed as percent injected dose/g; assay type: ADME, organism-based, Bone element; conditions: in vivo
Rattus norvegicus [36] = organism: Rattus norvegicus; experiment: Biodistribution in lung of mature female Dawley rat after 1h, expressed as percent injected dose/g; assay type: ADME, organism-based; conditions: in vivo
Rattus norvegicus [37] = organism: Rattus norvegicus; experiment: Biodistribution in lung of mature female Dawley rat after 3 h, expressed as percent injected dose/g; assay type: ADME, organism-based; conditions: in vivo
Rattus norvegicus [38] = organism: Rattus norvegicus; experiment: Biodistribution in lung of mature female Dawley rat after 30min, expressed as percent injected dose/g; assay type: ADME, organism-based; conditions: in vivo, 0.5 h
Rattus norvegicus [39] = organism: Rattus norvegicus; experiment: Biodistribution in kidney of mature female Dawley rat after 1h, expressed as percent injected dose/g; assay type: ADME, organism-based; conditions: in vivo
Rattus norvegicus [40] = organism: Rattus norvegicus; experiment: Biodistribution inl liver of mature female Dawley rat after 1h, expressed as percent injected dose/g; assay type: ADME, organism-based; conditions: in vivo

With `N=C(N)SCC[18F]` the Biodistribution (Rattus norvegicus [1]) was 0.29%, the Biodistribution (Rattus norvegicus [2]) was 0.16% and the Biodistribution (Rattus norvegicus [3]) was 0.37%. For the same molecule, the Biodistribution (Rattus norvegicus [4]) was 1.82%, the Biodistribution (Rattus norvegicus [5]) was 0.21% and the Biodistribution (Rattus norvegicus [6]) was 1.06%. The Biodistribution (Rattus norvegicus [7]) was 0.95%, the Biodistribution (Rattus norvegicus [8]) was 1.02% and the Biodistribution (Rattus norvegicus [9]) was 0.33%. The Biodistribution (Rattus norvegicus [10]) was 0.32%, the Biodistribution (Rattus norvegicus [11]) was 0.14% and the Biodistribution (Rattus norvegicus [12]) was 0.38%. The Biodistribution (Rattus norvegicus [13]) was 0.51%, the Biodistribution (Rattus norvegicus [14]) was 0.16% and the Biodistribution (Rattus norvegicus [15]) was 0.31%. It also gave a Biodistribution (Rattus norvegicus [16]) of 0.38%, a Biodistribution (Rattus norvegicus [17]) of 0.26% and a Biodistribution (Rattus norvegicus [18]) of 0.16%. The Biodistribution (Rattus norvegicus [19]) was 0.32%, the Biodistribution (Rattus norvegicus [20]) was 0.32% and the Biodistribution (Rattus norvegicus [21]) was 0.19%. It also gave a Biodistribution (Rattus norvegicus [22]) of 0.27%, a Biodistribution (Rattus norvegicus [23]) of 0.55% and a Biodistribution (Rattus norvegicus [24]) of 0.15%. For the same molecule, the Biodistribution (Rattus norvegicus [25]) was 0.08%, the Biodistribution (Rattus norvegicus [26]) was 0.07% and the Biodistribution (Rattus norvegicus [27]) was 0.04%. For the same molecule, the Biodistribution (Rattus norvegicus [28]) was 0.07%, the Biodistribution (Rattus norvegicus [29]) was 0.62% and the Biodistribution (Rattus norvegicus [30]) was 1.19%. For the same molecule, the Biodistribution (Rattus norvegicus [31]) was 0.82%, the Biodistribution (Rattus norvegicus [32]) was 0.14% and the Biodistribution (Rattus norvegicus [33]) was 0.17%. The Biodistribution (Rattus norvegicus [34]) was 0.16%, the Biodistribution (Rattus norvegicus [35]) was 0.88% and the Biodistribution (Rattus norvegicus [36]) was 0.38%. For the same molecule, the Biodistribution (Rattus norvegicus [37]) was 0.17%, the Biodistribution (Rattus norvegicus [38]) was 0.57% and the Biodistribution (Rattus norvegicus [39]) was 0.64%. It also gave a Biodistribution (Rattus norvegicus [40]) of 0.35%.
